One data set has as its system human carcinoma cells. Conditions: in vitro; cited from earlier work.
The subject of a further data set is H1299 cells. As to the kind of experiment: Apoptosis: cell death detection by ELISA, H1299 (lung large cell carcinoma). The format is cell-based. Conditions: Homo sapiens, NCI-H1299, 10 uM, read-out: Fold induction of apoptosis, internal positive control (cont.). The procedure:
Lung, large cell carcinoma, human (H1299), obtained from ATCC (CRL-5803), were grown in Gibco's Delbecco Minimum Essential media (DMEM), high glucose, supplemented with sodium pyruvate, 10% FBS and 13 ng/mL gentamicin. Cells were incubated at 37° C., 4.5% CO2 and 95.5% humidified air.
(§1) 2. Apoptosis: Cell death detection by ELISA:
(§2) Compounds of formula 1 were tested for the ability to cause apoptosis as follows:
(§3) Cells and media were collected, cells were pelleted, resuspended in 100 μl lysis buffer (50 mM Tris-Cl (pH=8.0), 20 mM EDTA, 1% NP-40e) and incubated 30 minutes at 4° C. to lyse. Cell debris was spun down and an aliquot (30 μl) of the […] was removed for protein determination and stored at -20° C. An additional 280 μl of lysis buffer, was added, mixed thoroughly and spun down at 14,000 RPM for 10 minutes at 4° C. An aliquot was removed (180 μl) and the sample was stored at -20° C. until testing.
(§4) A commercially available apoptosis detection kit, obtained from Boehringer Mannheim (Cat. No. 1544-674), was used as per the directions provided with the kit (Cell Death Detection ELISA). However, the protocol was modified in that a 1:40 to 1:100 dilution of sample was prepared, rather than the recommended 1:10 dilution, due to the increase in cell number used to prepare the sample extract and the subsequent increase in ELISA reactivity. The assay measures apoptosis by quantifying the amount of nucleosomal fragmentation from the extracts of cells treated with the test compounds (samples). These nucleosomal fragments, generated by the activation of endonucleases, are a known downstream effector of apoptosis. Antihistone antibodies are used to fix any nucleosomal fragments in the sample to the well of the microtiter plates. The sample is then incubated with anti-DNA antibodies conjugated to peroxidase and subsequently incubated with the peroxidase substrate, ABTS. The resulting colorimetric change is measured spectrophotometrically at 405/490nm.
(§5) The total protein content of each sample was determined for the purpose of normalizing the ELISA values to amount of sample loaded. Microplate assay protocol described in the instruction manual, for (Biorad DC Assay, Cat.#500-0116) section 5.2. The protein concentrations were calculated based upon a linear regression curve.
(§6) d) ELISA assay calculations
(§7) Relative ELISA O.D. readings are determined by subtracting the ELISA plate background O.D. value. No drug control O.D. value (lysis buffer only) was subtracted from sample O.D. value. A correction coefficient (CC), based on the sample protein concentration compared to no drug control, was determined to correct the sample O.D. following subtraction of the background O.D. (BCS O.D.). The fold increase over no drug control is calculated and normalized to the total protein concentration of the samples by multiplying against the correction coefficient.
(§8) To determine the fold increase in ELISA O.D., obtain the following O.D. measurements:
(§9) ELISA plate background--lysis buffer only (EPB);
(§10) no drug treated control--cell sample treated with DMSO (NDT);
(§11) drug treated sample--cell sample treated with a compound of formula 1 (DT) Subtract EPB from NDT (NDT-EPB) and DT (DT-EPB). The fold increase of the treated over the control is then (DT-EPB)/(NDT-EPB).
(§12) To determine the total protein concentration of the samples, obtain the total protein concentration in mg/ul calculated using standard linear regression formula (y=mx+b) based on BSA standards. B=ELISA background. Protein concentration (PC)(mg/ml)=(sample absorbance-b)/x.
(§13) Correction coefficient (cc) is (NDT)(PC)/(DT)(PC).
(§14) Determine fold increase of ELISA (FT) normalized to total PC:
(§15) nDT is DT×cc (which is DT O.D. normalized to PC)
(§16) nNDT is NDT×cc (which is NDT O.D. normalized to PC)
(§17) FI normalized to PC is nDT/nNDT.

The next data set concerns MDA-435 cells. As to the kind of experiment: Apoptosis: cell death detection by ELISA, MDA-435. Type of data set: cell-based, human. Conditions: for Fold induction of apoptosis, internal positive control (cont.) / fold induction at 10 µM: 10 uM; for fold induction at 10 µM / fold induction at 1 µM / fold induction at 3.3 µM: Homo sapiens. The procedure: ER- breast carcinoma, human (MDA-435) obtained from Dr. Janet Price, MDA Cancer Center, Houston, Tex., were grown in Gibco's RPMI 1640 media supplemented with sodium pyruvate, 10% FBS and 13 ng/mL gentamicin. Cells were incubated at 37° C., 4.5% CO2 and 95.5% humidified air.
as §1, §2, §3, §4, §5, §6, §7, §8, §9, §10, §11, §12, §13, §14, §15, §16, §17

For another data set, the system named is RKO cells. In words: Apoptosis: cell death detection by ELISA, RKO (colorectal carcinoma). The format is cell-based, human. Conditions: Homo sapiens, RKO, 10 uM, read-out: Fold induction of apoptosis, internal positive control (cont.). Here is the method: Colorectal carcinoma, human (RKO) obtained from Dr. Bernie Vogelstein, were grown in Gibco's Delbecco Minimum Essential media (DMEM), high glucose, supplemented with sodium pyruvate, 10% FBS and 13 ng/mL gentamicin. Cells were incubated at 37° C., 4.5% CO2 and 95.5% humidified air.
as §1, §2, §3, §4, §5, §6, §7, §8, §9, §10, §11, §12, §13, §14, §15, §16, §17

The next data set deals with ZR-75-1 cells. As to the kind of experiment: Apoptosis: cell death detection by ELISA, ZR-75-1. Conditions: for fold induction at 10 µM / fold induction at 1 µM / fold induction at 3.3 µM: Homo sapiens. Type of data set: cell-based, human. The procedure:
ER+ breast carcinoma, human (ZR-75-1) obtained from ATCC (CRL 1500), were grown in Gibco's RPMI 1640 media supplemented with sodium pyruvate, 10% FBS and 13 ng/mL gentamicin. Cells were incubated at 37° C., 4.5% CO2 and 95.5% humidified air.
as §1, §2, §3, §4, §5, §6, §7, §8, §9, §10, §11, §12, §13, §14, §15, §16, §17

The test system of another data set is RAR α, β and γ receptors. Conditions: cited from earlier work.
Data set [1] deals with retinoic acid X α, β and γ receptors (RXR). Conditions: cited from earlier work.
The test system of another data set is tumors. Conditions: 9-cis RA and its analogs; cited from earlier work.
In another data set the test system is tumor cells. Conditions: cited from earlier work; for Differentiation of certain tumor cells (in words): in vitro.
The test system of data set [2] is ER+ and ER- breast carcinoma cells. In words: Induction of apoptosis in ER+ and ER- carcinoma cells (statements in words). The format is cell-based, human. The procedure:
as §1, §2, §3
A commercially available apoptosis detection kit, obtained from Boehringer Mannheim (Cat. No. 1544-674), was used as per the directions provided with the kit (Cell Death Detection ELISA). […] The assay measures apoptosis by quantifying the amount of nucleosomal fragmentation from the extracts of cells treated with the test compounds (samples). […] The resulting colorimetric change is measured spectrophotometrically at 405/490nm.
The total protein content of each sample was determined for the purpose of normalizing the ELISA values to amount of sample loaded. […] The protein concentrations were calculated based upon a linear regression curve. […]
Relative ELISA O.D. readings are determined by subtracting the ELISA plate background O.D. value. […] A correction coefficient (CC), based on the sample protein concentration compared to no drug control, was determined to correct the sample O.D. following subtraction of the background O.D. (BCS O.D.). The fold increase over no drug control is calculated and normalized to the total protein concentration of the samples by multiplying against the correction coefficient. […]
To determine the total protein concentration of the samples, obtain the total protein concentration in mg/ul calculated using standard linear regression formula (y=mx+b) based on BSA standards. […] Protein concentration (PC)(mg/ml)=(sample absorbance-b)/x. […]

Where [3] appears, read: MDA435, 24 h, 24 hrs, read-out: Fold induction of apoptosis compared to no drug control.
The mark [4] stands for this setting: MDA435, 48 h, 48 hrs, read-out: Fold induction of apoptosis compared to no drug control.
[5] abbreviates: MDA435, 72 h, 72 hrs, read-out: Fold induction of apoptosis compared to no drug control.
Where [6] appears, read: ZR-75-1, 24 h, 24 hrs, read-out: Fold induction of apoptosis compared to no drug control.
Where [7] appears, read: ZR-75-1, 48 h, 48 hrs, read-out: Fold induction of apoptosis compared to no drug control.
Where [8] appears, read: ZR-75-1, 72 h, 72 hrs, read-out: Fold induction of apoptosis compared to no drug control.

Like-named read-outs stand apart in the source and are kept apart here.

The values below come from patent publication US6310247A, “7-aryl-6(Z)-heptatrienoic acid retinamides” (Hoffmann-LA Roche Inc., priority 1999, dated 2001).

Take `O=c1[nH]cc(F)c(=O)[nH]1` [5FU]: in the data set with human carcinoma cells, the “Induction of apoptosis in human carcinoma cells (in words)” value was “induce apoptosis”.
Consider `CC1=C(/C=C/C(C)=C\C=C\C(C)=C\C(=O)Nc2ccc(O)cc2)C(C)(C)CCC1` [9-cis 4-HPR, reference compound], for which the fold induction at 10 µM in the data set with H1299 cells (24 hrs) stood at 1; with H1299 cells (48 hrs), 15; in the data set on H1299 cells (72 hrs) it was 25; with MDA-435 cells (MDA435, 48 h, 48 hrs, read-out: Fold induction of apoptosis, internal positive control (cont.)), 15; with MDA-435 cells (MDA435, 72 h, 72 hrs, read-out: Fold induction of apoptosis, internal positive control (cont.)) it was 19; with RKO cells (24 hrs) it was 8. Besides, the fold induction at 10 µM in the data set on RKO cells (48 hrs) came out at 9; in the data set on RKO cells (72 hrs), 5; in the data set with ZR-75-1 cells (ZR-75-1, 24 h, 24 hrs, 10 uM, read-out: Fold induction of apoptosis, internal positive control (cont.)), 1. The “Fold induction of apoptosis, internal positive control (cont.)” value in the data set with MDA-435 cells (48 hrs, 2880 min) stood at 10 fold; in the data set with MDA-435 cells (72 hrs, 4320 min) it was 12 fold; in the data set with ZR-75-1 cells (24 hrs, 10 uM, 1440 min), 2 fold.
As for `CC1=C(/C=C/C(C)=C\C=C\C(C)=C\C(=O)O)C(C)(C)CCC1` [9-cis RA], the “Binding to RAR (in words)” value with RAR α, β and γ receptors is recorded as “bind”. In addition, the “Binding to RXR (in words)” value in data set [1] is reported as “bind”. In the data set with tumors, the “Tumor regression (in words)” value is recorded as “cause tumor regression”.
Consider `CC1=C(/C=C/C(C)=C/C=C/C(C)=C\C(=O)O)C(C)(C)CCC1` [13-cis RA], for which, in the data set with tumor cells, the “Ability to induce apoptosis (in words)” value is on record as “very limited” and the “Differentiation of certain tumor cells (in words)” value is recorded as “cause differentiation of certain tumor cells in vitro”.
For the molecule `C/C(=C/C=C/C(C)=C/C(=O)O)c1cc(C(F)(F)F)cc(C(F)(F)F)c1` [(2E,4E,6Z)-7-[3,5-bis(trifluoromethyl)phenyl]-3,7-dimethyl-2,4,6-heptatrienoic acid], the fold induction at 1 µM in the data set with MDA-435 cells (setting [3]), in the data set on MDA-435 cells (setting [4]), in the data set on MDA-435 cells (setting [5]), in the data set with ZR-75-1 cells (setting [6]), in the data set on ZR-75-1 cells (setting [7]) and in the data set on ZR-75-1 cells (setting [8]) was 1 in each case. For the same molecule, the fold induction at 3.3 µM in the data set on MDA-435 cells (setting [3]), in the data set with MDA-435 cells (setting [4]), with MDA-435 cells (setting [5]), with ZR-75-1 cells (setting [6]), with ZR-75-1 cells (setting [7]) and in the data set with ZR-75-1 cells (setting [8]) was 1 each time. Also, the fold induction at 10 µM worked out at 1 with MDA-435 cells (setting [3]); 1 in the data set with MDA-435 cells (setting [4]); 2 with MDA-435 cells (setting [5]); 1 with ZR-75-1 cells (ZR-75-1, 24 h, 24 hrs, 10 uM, read-out: Fold induction of apoptosis compared to no drug control); 1 with ZR-75-1 cells (ZR-75-1, 48 h, 48 hrs, 10 uM, read-out: Fold induction of apoptosis compared to no drug control); 2 with ZR-75-1 cells (ZR-75-1, 72 h, 72 hrs, 10 uM, read-out: Fold induction of apoptosis compared to no drug control). For the same molecule, in [2] (72 h, compared with the corresponding amide), the “Induction of apoptosis (in words)” value was “induces considerably lower amounts apoptosis only after 72 h”. In data set [2] (ER- and ER+ carcinoma cells), the “Activity against ER- and ER+ carcinoma cells (induction of apoptosis)” value was “inactive”.
On to `COc1cccc2c1C(=O)c1c(O)c3c(c(O)c1C2=O)C[C@@](O)(C(=O)CO)C[C@@H]3O[C@H]1C[C@H](N)[C@H](O)[C@H](C)O1` [Adriamycin], for which the “Induction of apoptosis in human carcinoma cells (in words)” value in the data set on human carcinoma cells is on record as “induce apoptosis”.
Regarding `CC1=C(/C=C/C(C)=C/C=C/C(C)=C/C(=O)O)C(C)(C)CCC1` [All-trans RA], in the data set on tumor cells, the “Ability to induce apoptosis (in words)” value is listed as “very limited” and the “Differentiation of certain tumor cells (in words)” value is reported as “cause differentiation of certain tumor cells in vitro”.
As to `CC(=O)O[C@H]1C(=O)[C@@]2(C)[C@H]([C@H](OC(=O)c3ccccc3)[C@]3(O)C[C@H](OC(=O)[C@H](O)[C@@H](NC(=O)c4ccccc4)c4ccccc4)C(C)=C1C3(C)C)[C@]1(OC(C)=O)CO[C@@H]1C[C@@H]2O` [Taxol], the “Induction of apoptosis in human carcinoma cells (in words)” value in the data set with human carcinoma cells was “induce apoptosis”.
